Results taken from patent US20260250290A1 (BRISTOL-MYERS SQUIBB COMPANY, priority 2023, published 2026).
Where a name gives a salt, the structure may show the parent alone.

Target: T1, full length SGK1 (Homo sapiens, UniProt O00141)
T1 construct: 125 μM full length SGK1 (Life Technologies Part #PR7358A); purchased Life Technologies PR7358A
T1 sequence (O00141 1-431): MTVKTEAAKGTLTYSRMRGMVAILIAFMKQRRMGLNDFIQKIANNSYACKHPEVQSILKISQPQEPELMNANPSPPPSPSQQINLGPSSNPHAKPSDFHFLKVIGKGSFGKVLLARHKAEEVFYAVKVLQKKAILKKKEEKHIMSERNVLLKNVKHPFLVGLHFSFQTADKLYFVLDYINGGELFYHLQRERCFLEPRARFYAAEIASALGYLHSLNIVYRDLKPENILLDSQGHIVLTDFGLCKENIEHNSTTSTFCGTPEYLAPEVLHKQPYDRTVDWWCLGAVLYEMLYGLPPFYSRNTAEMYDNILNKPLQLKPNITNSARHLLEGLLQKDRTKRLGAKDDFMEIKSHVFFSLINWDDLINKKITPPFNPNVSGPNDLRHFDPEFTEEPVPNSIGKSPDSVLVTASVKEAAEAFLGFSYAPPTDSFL
Assay: SGK1 inhibition Assay A (Caliper LabChip electrophoretic separation of fluorescent peptide substrate and phosphorylated product)
Format: biochemical
Details: Assay A; 20 μM ATP, 40 min incubation; read-out: SGK1 IC50

| Compound | IC50 |
| --- | --- |
| CC(=O)N1CC=C(c2cc(N3CCC[C@@H](NC(=O)c4cccc(OC5CCN(C(C)C)CC5)n4)C3)c3c(N)ncnn23)C1 [Example 751, (R)-N-(1-(7-(1-acetyl-2,5-dihydro-1H-pyrrol-3-yl)-4-aminopyrrolo[2,1-f][1,2,4]triazin-5-yl)piperidin-3-yl)-6-((1-isopropylpiperidin-4-yl)oxy)picolinamide] | 37 nM |
| CC(=O)N1CC=C(c2cc(N3CCC[C@@H](NC(=O)c4ccnc(N5CC6(C5)CN(C(C)C)C6)n4)C3)c3c(N)ncnn23)C1 [Example 752, (R)-N-(1-(7-(1-acetyl-2,5-dihydro-1H-pyrrol-3-yl)-4-aminopyrrolo[2,1-f][1,2,4]triazin-5-yl)piperidin-3-yl)-2-(6-isopropyl-2,6-diazaspiro[3.3]heptan-2-yl)pyrimidine-4-carboxamide] | 79 nM |
| CC(=O)N1CC=C(c2cc(N3CCC[C@@H](NC(=O)c4cccc(N[C@@H]5CCN(C)C5)n4)C3)c3c(N)ncnn23)C1 [Example 760, N—((R)-1-(7-(1-acetyl-2,5-dihydro-1H-pyrrol-3-yl)-4-aminopyrrolo[2,1-f][1,2,4]triazin-5-yl)piperidin-3-yl)-6-(((R)-1-methylpyrrolidin-3-yl)amino)picolinamide] | 23 nM |
| CC(=O)N1CC=C(c2cc(N3CCC[C@@H](NC(=O)c4cccc(NCCN(C)C)n4)C3)c3c(N)ncnn23)C1 [Example 761, (R)-N-(1-(7-(1-acetyl-2,5-dihydro-1H-pyrrol-3-yl)-4-aminopyrrolo[2,1-f][1,2,4]triazin-5-yl)piperidin-3-yl)-6-((2-(dimethylamino)ethyl)amino)picolinamide] | 7 nM |
| CC(=O)N1CC=C(c2cc(N3CCC[C@@H](NC(=O)c4cccc(NCCN5CCCC5)n4)C3)c3c(N)ncnn23)C1 [Example 763, (R)-N-(1-(7-(1-acetyl-2,5-dihydro-1H-pyrrol-3-yl)-4-aminopyrrolo[2,1-f][1,2,4]triazin-5-yl)piperidin-3-yl)-6-((2-(pyrrolidin-1-yl)ethyl)amino)picolinamide] | 10 nM |
| CC(=O)N1CC=C(c2cc(N3CCC[C@@H](NC(=O)c4cccc(N5CC(S(C)(=O)=O)C5)n4)C3)c3c(N)ncnn23)C1 [Example 764, (R)-N-(1-(7-(1-acetyl-2,5-dihydro-1H-pyrrol-3-yl)-4-aminopyrrolo[2,1-f][1,2,4]triazin-5-yl)piperidin-3-yl)-6-(3-(methylsulfonyl)azetidin-1-yl)picolinamide] | 62 nM |
| COCCNc1cccc(C(=O)N[C@@H]2CCCN(c3cc(C4=CCN(C(C)=O)C4)n4ncnc(N)c34)C2)n1 [Example 765, (R)-N-(1-(7-(1-acetyl-2,5-dihydro-1H-pyrrol-3-yl)-4-aminopyrrolo[2,1-f][1,2,4]triazin-5-yl)piperidin-3-yl)-6-((2-methoxyethyl)amino)picolinamide] | 200 nM |
| CC(=O)N1CC=C(c2cc(N3CCC[C@@H](NC(=O)c4cccc(NC5CN(C)C5)n4)C3)c3c(N)ncnn23)C1 [Example 766, (R)-N-(1-(7-(1-acetyl-2,5-dihydro-1H-pyrrol-3-yl)-4-aminopyrrolo[2,1-f][1,2,4]triazin-5-yl)piperidin-3-yl)-6-((1-methylazetidin-3-yl)amino)picolinamide] | 679 nM |
| CC(=O)N1CC=C(c2cc(N3CCC[C@@H](NC(=O)c4cccc(NCCS(C)(=O)=O)n4)C3)c3c(N)ncnn23)C1 [Example 767, (R)-N-(1-(7-(1-acetyl-2,5-dihydro-1H-pyrrol-3-yl)-4-aminopyrrolo[2,1-f][1,2,4]triazin-5-yl)piperidin-3-yl)-6-((2-(methylsulfonyl)ethyl)amino)picolinamide] | 24 nM |
| CC(=O)N1CC=C(c2cc(N3CCC[C@@H](NC(=O)c4cccc(NC5CC(=O)N(C)C5)n4)C3)c3c(N)ncnn23)C1 (stereo partly drawn) [Example 768, N-((R)-1-(7-(1-acetyl-2,5-dihydro-1H-pyrrol-3-yl)-4-aminopyrrolo[2,1-f][1,2,4]triazin-5-yl)piperidin-3-yl)-6-((1-methyl-5-oxopyrrolidin-3-yl)amino)picolinamide] | 46 nM |
| CC(=O)N1CC=C(c2cc(N3CCC[C@@H](NC(=O)c4cccc(N5CCN6CCCC6C5)n4)C3)c3c(N)ncnn23)C1 (stereo partly drawn) [Example 769, N-((R)-1-(7-(1-acetyl-2,5-dihydro-1H-pyrrol-3-yl)-4-aminopyrrolo[2,1-f][1,2,4]triazin-5-yl)piperidin-3-yl)-6-(hexahydropyrrolo[1,2-a]pyrazin-2(1H)-yl)picolinamide] | 2 nM |
| CC(=O)N1CC=C(c2cc(N3CCC[C@@H](NC(=O)c4cccc(N5CC[C@@H](O)C5)n4)C3)c3c(N)ncnn23)C1 [Example 770, N-((R)-1-(7-(1-acetyl-2,5-dihydro-1H-pyrrol-3-yl)-4-aminopyrrolo[2,1-f][1,2,4]triazin-5-yl)piperidin-3-yl)-6-((R)-3-hydroxypyrrolidin-1-yl)picolinamide] | 7 nM |
| CC(=O)N1CC=C(c2cc(N3CCC[C@@H](NC(=O)c4cccc(N5CC(C)(O)C5)n4)C3)c3c(N)ncnn23)C1 [Example 771, (R)-N-(1-(7-(1-acetyl-2,5-dihydro-1H-pyrrol-3-yl)-4-aminopyrrolo[2,1-f][1,2,4]triazin-5-yl)piperidin-3-yl)-6-(3-hydroxy-3-methylazetidin-1-yl)picolinamide] | 17 nM |
| CC(=O)N1CC=C(c2cc(N3CCC[C@@H](NC(=O)c4cccc(N5CCC(C)(O)CC5)n4)C3)c3c(N)ncnn23)C1 [Example 772, (R)-N-(1-(7-(1-acetyl-2,5-dihydro-1H-pyrrol-3-yl)-4-aminopyrrolo[2,1-f][1,2,4]triazin-5-yl)piperidin-3-yl)-6-(4-hydroxy-4-methylpiperidin-1-yl)picolinamide] | 72 nM |
| CC(=O)N1CC=C(c2cc(N3CCC[C@@H](NC(=O)c4cccc(N5CCNC(C)(C)C5)n4)C3)c3c(N)ncnn23)C1 [Example 773, (R)-N-(1-(7-(1-acetyl-2,5-dihydro-1H-pyrrol-3-yl)-4-aminopyrrolo[2,1-f][1,2,4]triazin-5-yl)piperidin-3-yl)-6-(3,3-dimethylpiperazin-1-yl)picolinamide] | 1 nM |
| CC(=O)N1CC=C(c2cc(N3CCC[C@@H](NC(=O)c4cccc(N5C[C@@H](C)N[C@@H](C)C5)n4)C3)c3c(N)ncnn23)C1 [Example 774, N-((R)-1-(7-(1-acetyl-2,5-dihydro-1H-pyrrol-3-yl)-4-aminopyrrolo[2,1-f][1,2,4]triazin-5-yl)piperidin-3-yl)-6-((3S,5R)-3,5-dimethylpiperazin-1-yl)picolinamide] | 1 nM |
| CC(=O)N1CC=C(c2cc(N3CCC[C@@H](NC(=O)c4cccc(N5CC(=O)NC(C)C5)n4)C3)c3c(N)ncnn23)C1 (stereo partly drawn) [Example 775, N-((R)-1-(7-(1-acetyl-2,5-dihydro-1H-pyrrol-3-yl)-4-aminopyrrolo[2,1-f][1,2,4]triazin-5-yl)piperidin-3-yl)-6-(3-methyl-5-oxopiperazin-1-yl)picolinamide, 2 TFA] | 9 nM |
| CC(=O)N1CC=C(c2cc(N3CCC[C@@H](NC(=O)c4cccc(N5CCNC(C(F)(F)F)C5)n4)C3)c3c(N)ncnn23)C1 (stereo partly drawn) [Example 776, N-((R)-1-(7-(1-acetyl-2,5-dihydro-1H-pyrrol-3-yl)-4-aminopyrrolo[2,1-f][1,2,4]triazin-5-yl)piperidin-3-yl)-6-(3-(trifluoromethyl)piperazin-1-yl)picolinamide] | 5 nM |
| CC(=O)N1CC=C(c2cc(N3CCC[C@@H](NC(=O)c4cccc(N5CCN(C)C(C)C5)n4)C3)c3c(N)ncnn23)C1 (stereo partly drawn) [Example 777, N-((R)-1-(7-(1-acetyl-2,5-dihydro-1H-pyrrol-3-yl)-4-aminopyrrolo[2,1-f][1,2,4]triazin-5-yl)piperidin-3-yl)-6-(3,4-dimethylpiperazin-1-yl)picolinamide] | 44 nM |
| CNc1cccc(C(=O)N[C@@H]2CCCN(c3cc(C4=CCN(C(C)=O)C4)n4ncnc(N)c34)C2)n1 [Example 778, (R)-N-(1-(7-(1-acetyl-2,5-dihydro-1H-pyrrol-3-yl)-4-aminopyrrolo[2,1-f][1,2,4]triazin-5-yl)piperidin-3-yl)-6-(methylamino)picolinamide] | 21 nM |
| CC(=O)N1CC=C(c2cc(N3CCC[C@@H](NC(=O)c4cccc(N5CC[C@H](O)C5)n4)C3)c3c(N)ncnn23)C1 [Example 779, N-((R)-1-(7-(1-acetyl-2,5-dihydro-1H-pyrrol-3-yl)-4-aminopyrrolo[2,1-f][1,2,4]triazin-5-yl)piperidin-3-yl)-6-((S)-3-hydroxypyrrolidin-1-yl)picolinamide] | 33 nM |
| CC(=O)N1CC=C(c2cc(N3CCC[C@@H](NC(=O)c4cccc(NCC5CN(C)C5)n4)C3)c3c(N)ncnn23)C1 [Example 780, (R)-N-(1-(7-(1-acetyl-2,5-dihydro-1H-pyrrol-3-yl)-4-aminopyrrolo[2,1-f][1,2,4]triazin-5-yl)piperidin-3-yl)-6-(((1-methylazetidin-3-yl)methyl)amino)picolinamide] | 25 nM |
| CC(=O)N1CC=C(c2cc(N3CCC[C@@H](NC(=O)c4cccc(N5CC6(C5)CN(C(C)C)C6)n4)C3)c3c(N)ncnn23)C1 [Example 781, (R)-N-(1-(7-(1-acetyl-2,5-dihydro-1H-pyrrol-3-yl)-4-aminopyrrolo[2,1-f][1,2,4]triazin-5-yl)piperidin-3-yl)-6-(6-isopropyl-2,6-diazaspiro[3.3]heptan-2-yl)picolinamide] | 5 nM |
